Assay results taken from patent US20230287021A1, “COMPOUNDS, COMPOSITIONS AND METHODS FOR STABILIZING TRANSTHYRETIN AND INHIBITING TRANSTHYRETIN MISFOLDING” (Protego Biopharma, Inc., priority 2020, published 2023).
Where a name gives a salt, the structure may show the parent alone.

Legend:
[1] = In vitro rat plasma stability assay, formation of tafamidis; format: in vitro ADME; details: 37° C., 2 µM test compound
Procedure: A stability assay in plasma (rat or human) was used to evaluate the ability of a compound provided herein to convert to an active TTR stabilizer. The test compound was added to plasma and incubated at 37° C. in a water bath at a concentration of 2 µM. At each time point (0, 10, 30, 60 and 120 min or 0, 60, 120, 180 and 240 min), stop solution (tolbutamide plus labetalol) was added to precipitate protein and mixed thoroughly. After centrifugation, an aliquot of supernatant was analyzed by LC-MS/MS. The percentage of formation of active agent was calculated at each time point.

[2] = In vitro rat liver S9 stability assay, formation of tafamidis; format: in vitro ADME; details: rat liver S9, 37° C., 1 µM test compound
Procedure: The test compound was added to liver S9 and incubated at 37° C. in a water bath at a concentration of 1 µM. At each time point (0, 5, 10, 20, 30 and 60 min), stop solution (tolbutamide plus labetalol) was added to precipitate protein and mixed thoroughly. After centrifugation, an aliquot of supernatant was analyzed by LC-MS/MS. The percentage of formation of active agent was calculated at each time point.

SMILES	Formation of tafamidis at 120 min [1]	Formation of tafamidis at 60 min [2]
O=C(OC1CCNC1)c1ccc2nc(-c3cc(Cl)cc(Cl)c3)oc2c1 (stereo not shown) [Compound 17, pyrrolidin-3-yl 2-(3,5-dichlorophenyl)benzo[d]oxazole-6-carboxylate hydrochloride]	A (A is <25%)	A (A is <25%)
CC(C)(C)OC(=O)N1CC2CCC1CC2OC(=O)c1ccc2nc(-c3cc(Cl)cc(Cl)c3)oc2c1 (stereo not shown) [Compound 26, 2-(tert-butoxycarbonyl)-2-azabicyclo[2.2.2]octan-5-yl 2-(3,5-dichlorophenyl) benzo [d] oxazole-6-carboxylate]	A (A is <25%)	A (A is <25%)
O=C(OC1CC2CCC1CN2)c1ccc2nc(-c3cc(Cl)cc(Cl)c3)oc2c1 (stereo not shown) [Compound 27, 2-azabicyclo[2.2.2]octan-5-yl 2-(3,5-dichlorophenyl)benzo [d]oxazole-6-carboxylate hydrochloride]	A (A is <25%)	A (A is <25%)
CN1CC2CCC1CC2OC(=O)c1ccc2nc(-c3cc(Cl)cc(Cl)c3)oc2c1 (stereo not shown) [Compound 32, 2-methyl-2-azabicyclo[2.2.2]octan-5-yl 2-(3,5-dichlorophenyl) benzo [d]oxazole-6-carboxylate]	A (A is <25%)	A (A is <25%)
O=C(OCCN1CCCCC1)c1ccc2nc(-c3cc(Cl)cc(Cl)c3)oc2c1 [Compound 34, 2-(piperidin-1-yl)ethyl 2-(3,5-dichlorophenyl)benzo[d] oxazole-6-carboxylate]	A (A is <25%)	C (C is ≥50 to <75%)
CN1CCCC1COC(=O)c1ccc2nc(-c3cc(Cl)cc(Cl)c3)oc2c1 (stereo not shown) [Compound 61, (1-methylpyrrolidin-2-yl)methyl 2-(3,5-dichlorophenyl)benzo [d] oxazole-6-carboxylate]	D (D is ≥75%)	C (C is ≥50 to <75%)
O=C(OCCN1CCOCC1)c1ccc2nc(-c3cc(Cl)cc(Cl)c3)oc2c1 [Compound 80]	B (B is ≥25 to <50%)	D (D is ≥75%)
O=C(OCC1CCCO1)c1ccc2nc(-c3cc(Cl)cc(Cl)c3)oc2c1 (stereo not shown) [Compound 86]	D (D is ≥75%)	D (D is ≥75%)
O=C(OCc1ncc[nH]1)c1ccc2nc(-c3cc(Cl)cc(Cl)c3)oc2c1 [Compound 89]	C (C is ≥50 to <75%)	D (D is ≥75%)
O=C(OCc1ncco1)c1ccc2nc(-c3cc(Cl)cc(Cl)c3)oc2c1 [Compound 91]	C (C is ≥50 to <75%)	–
CC(C)(C)N1CCC(OC(=O)c2ccc3nc(-c4cc(Cl)cc(Cl)c4)oc3c2)C1 (stereo not shown) [Compound 92]	B (B is ≥25 to <50%)	A (A is <25%)
CN1CCN(CCOC(=O)c2ccc3nc(-c4cc(Cl)cc(Cl)c4)oc3c2)CC1 [Compound 93]	B (B is ≥25 to <50%)	–
CN1CCN(CCCOC(=O)c2ccc3nc(-c4cc(Cl)cc(Cl)c4)oc3c2)CC1 [Compound 94]	C (C is ≥50 to <75%)	–
O=C(OC1CCOC1)c1ccc2nc(-c3cc(Cl)cc(Cl)c3)oc2c1 (stereo not shown) [Compound 95]	D (D is ≥75%)	–
O=C(OCCC1CCOC1)c1ccc2nc(-c3cc(Cl)cc(Cl)c3)oc2c1 (stereo not shown) [Compound 96, 2-(tetrahydrofuran-3-yl)ethyl 2-(3,5-dichlorophenyl)benzo[d] oxazole-6-carboxylate]	C (C is ≥50 to <75%)	–
O=C(OCCC1CCCO1)c1ccc2nc(-c3cc(Cl)cc(Cl)c3)oc2c1 (stereo not shown) [Compound 97]	A (A is <25%)	–
O=C(OCCCC1CCOC1)c1ccc2nc(-c3cc(Cl)cc(Cl)c3)oc2c1 (stereo not shown) [Compound 100]	D (D is ≥75%)	–
O=C(OCCCC1CCCO1)c1ccc2nc(-c3cc(Cl)cc(Cl)c3)oc2c1 (stereo not shown) [Compound 101]	C (C is ≥50 to <75%)	–
